In US20080261994A1, “CYCLOPROPANE COMPOUNDS AND PHARMACEUTICAL USE THEREOF” (Japan Tobacco Inc., priority 2003, published 2008):
Where two headings read alike, the source gives them in different places.

How the values were obtained:
Assay type in all cases: biochemical
aggrecanase-1 = target: T1, aggrecanase-1 (Homo sapiens, UniProt O75173); assay: Aggrecanase-1 inhibitory action (Particle Assay, GAG release from aggrecan-containing polyacrylamide particles)
T1 sequence (O75173 213-837): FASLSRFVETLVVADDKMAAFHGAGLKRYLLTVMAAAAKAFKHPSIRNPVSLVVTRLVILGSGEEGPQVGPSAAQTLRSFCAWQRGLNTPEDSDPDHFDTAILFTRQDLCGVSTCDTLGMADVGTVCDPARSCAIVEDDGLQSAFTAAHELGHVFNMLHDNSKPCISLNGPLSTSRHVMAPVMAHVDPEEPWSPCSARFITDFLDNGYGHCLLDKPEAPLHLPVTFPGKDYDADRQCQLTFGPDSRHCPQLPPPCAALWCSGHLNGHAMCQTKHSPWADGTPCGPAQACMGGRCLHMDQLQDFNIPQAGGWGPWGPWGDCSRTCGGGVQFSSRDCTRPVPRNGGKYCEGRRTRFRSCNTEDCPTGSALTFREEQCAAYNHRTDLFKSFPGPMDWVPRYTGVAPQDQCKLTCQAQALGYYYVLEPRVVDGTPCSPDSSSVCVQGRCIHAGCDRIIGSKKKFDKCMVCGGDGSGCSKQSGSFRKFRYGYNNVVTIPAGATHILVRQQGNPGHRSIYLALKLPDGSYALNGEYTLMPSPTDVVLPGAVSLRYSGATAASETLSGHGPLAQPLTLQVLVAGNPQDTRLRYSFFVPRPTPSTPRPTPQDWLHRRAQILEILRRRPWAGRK
Summary of the method: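 Readout was dimethylmethylene blue absorbance (595 nm) of glycosaminoglycan liberated into supernatant, calibrated with whale chondroitin sulfate. Substrate was aggrecan in polyacrylamide particles, digested 15 h at 37° C in Tris-HCl; TC50 (μM) derived from inhibition relative to no-enzyme and no-inhibitor controls.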

MMP-1 = target: T2, MMP-1 (Homo sapiens, UniProt P03956); assay: MMP-1 inhibitory action (Type I collagen Activity Measurement kit, FITC-labeled collagen type I)
T2 sequence (P03956 100-469): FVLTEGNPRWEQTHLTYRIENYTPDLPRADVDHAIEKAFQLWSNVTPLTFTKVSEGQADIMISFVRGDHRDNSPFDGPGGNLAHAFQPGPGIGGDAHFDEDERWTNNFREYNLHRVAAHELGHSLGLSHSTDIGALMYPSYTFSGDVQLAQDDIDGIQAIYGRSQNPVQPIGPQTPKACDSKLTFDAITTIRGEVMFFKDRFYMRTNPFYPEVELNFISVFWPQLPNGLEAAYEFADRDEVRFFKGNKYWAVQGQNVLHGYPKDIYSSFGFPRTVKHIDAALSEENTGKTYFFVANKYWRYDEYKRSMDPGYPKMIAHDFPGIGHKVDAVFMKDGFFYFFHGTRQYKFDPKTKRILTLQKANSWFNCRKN

Recombinant Human MMP-13 = target: T3, Recombinant Human MMP-13 (Homo sapiens, UniProt P45452); assay: MMP-13 inhibitory activity (MMP-13 specific fluorescent substrate with quencher)
T3 construct: purchased R&D systems 511-MM
Summary of the method: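 IC50 (μM) derived from % inhibition, normalised to wells without enzyme and without inhibitor, fluorescence read at 325/405 nm. Enzyme and compound preceded addition of the quenched 7-MCA…DPA substrate; Tris-HCl buffer, 25 °C for 1 h, acetic-acid stop.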

[1] = Experimental Example 1, read-out: IC50 AG1
[2] = Experimental Example 2, read-out: IC50 MMP1
[3] = Experimental Example 3, read-out: IC50 MMP13
[4] = aggrecanase-1 inhibitory action, read-out: IC50 AG1 (Experimental Example 1)
[5] = MMP-1 inhibitory action, FITC-labeled collagen type I, 37° C. for 3 hr, read-out: IC50 MMP1 (Experimental Example 2)
[6] = Recombinant Human MMP-13, fluorescent substrate, 25° C. for 1 h, read-out: IC50 MMP13 (Experimental Example 3)

| IC50 (aggrecanase-1; [1]) [µM] | IC50 (MMP-1; [2]) [µM] | IC50 (Recombinant Human MMP-13; [3]) [µM] | IC50 (aggrecanase-1; [4]) [µM] | IC50 (MMP-1; [5]) [µM] | IC50 (Recombinant Human MMP-13; [6]) [µM] | Compound |
| --- | --- | --- | --- | --- | --- | --- |
| ≥ 1 | ≥ 10 | < 1 |  |  |  | O=C(O)C1(NS(=O)(=O)c2ccc(OCc3ccc(Cl)cc3Cl)cc2)C2CCCc3ccccc3C21 (stereo not drawn) [Example 2-363] |
| ≥ 1 | ≥ 10 | ≥ 1 |  |  |  | CC1[C@H](c2ccccc2)[C@]1(NS(=O)(=O)N1CCN(c2nc3ccccc3s2)CC1)C(=O)O (stereo partly drawn) [Example 2-463] |
| < 1 | ≥ 10 | < 1 |  |  |  | CC1[C@H](c2ccccc2)[C@]1(NS(=O)(=O)N1CCn2c(nc3cc(Cl)ccc32)C1)C(=O)O (stereo partly drawn) [Example 2-445] |
| < 0.1 | ≥ 1 | < 1 |  |  |  | C[C@]1(c2ccccc2)C[C@@]1(NS(=O)(=O)c1ccc(-c2ccc(F)c(F)c2)s1)C(=O)O [Example 2-581] |
| < 1 | ≥ 1 | < 1 |  |  |  | CC1C(c2ccccc2)C1(NS(=O)(=O)c1ccc(-c2ccc(Cl)cc2)s1)C(=O)O (stereo not drawn) [Example 2-326] |
| < 1 | ≥ 1 | < 0.1 |  |  |  | CC1[C@H](c2ccccc2)[C@]1(NS(=O)(=O)c1ccc(-n2cc(Cl)cn2)nc1)C(=O)O (stereo partly drawn) [Example 2-557] |
| < 1 | ≥ 10 | ≥ 1 |  |  |  | CC1(c2ccc(F)cc2)CC1(NS(=O)(=O)c1ccc(-c2cc(C(F)(F)F)on2)s1)C(=O)O (stereo not drawn) [Example 2-340] |
| ≥ 10 | ≥ 10 | ≥ 1 |  |  |  | CC(=O)c1ccc(S(=O)(=O)N[C@@]2(C(=O)O)C(C)[C@@H]2c2ccccc2)s1 (stereo partly drawn) [Example 2-425] |
| ≥ 1 | ≥ 1 | < 1 |  |  |  | Cn1cc(-c2ccc(S(=O)(=O)N[C@@]3(C(=O)O)C[C@]3(C)c3ccccc3)s2)nn1 [Example 2-587] |
| ≥ 1 | ≥ 10 | ≥ 1 |  |  |  | O=C(O)C1(NS(=O)(=O)c2ccc(-c3cc(C(F)(F)F)on3)s2)CC1(CN1CCCCC1)c1ccccc1 (stereo not drawn) [Example 2-330] |
| < 1 | ≥ 1 | < 1 |  |  |  | CC1[C@H](c2ccccc2)[C@]1(NS(=O)(=O)c1ccc(-n2ccc(C(F)(F)F)n2)s1)C(=O)O (stereo partly drawn) [Example 2-514] |
| ≥ 1 | < 1 | < 0.1 |  |  |  | C[C@]1(c2ccccc2)C[C@@]1(NS(=O)(=O)c1ccc(-n2cc(C(F)(F)F)cn2)cc1)C(=O)O [Example 2-506] |
| < 0.1 | < 1 | < 0.1 |  |  |  | O=C(O)C1(NS(=O)(=O)c2ccc(-c3cc(C(F)(F)F)on3)s2)C2CCC(O)c3ccccc3C21 (stereo not drawn) [Example 2-438] |
| ≥ 1 | ≥ 1 | ≥ 1 |  |  |  | CC1C(c2ccccc2)C1(NS(=O)(=O)c1ccc(CCc2ccccc2)s1)C(=O)O (stereo not drawn) [Example 2-541] |
| < 0.1 | < 0.1 | < 0.1 |  |  |  | CC1[C@H](c2ccccc2)[C@]1(NS(=O)(=O)c1ccc(-n2cc(S(C)(=O)=O)cn2)s1)C(=O)O (stereo partly drawn) [Example 2-524] |
| < 0.1 | < 1 | < 0.1 |  |  |  | CC1[C@H](c2ccccc2)[C@]1(NS(=O)(=O)c1ccc(-c2cc(C3CC3)on2)s1)C(=O)O (stereo partly drawn) [Example 2-433] |
| < 1 | ≥ 10 | < 1 |  |  |  | CC(C)S(=O)(=O)CC1(c2ccccc2)CC1(NS(=O)(=O)c1ccc(-c2ccc(Cl)cc2)s1)C(=O)O (stereo not drawn) [Example 2-348] |
| ≥ 1 | ≥ 10 | ≥ 1 |  |  |  | CC1CCC(c2ccc(S(=O)(=O)N[C@@]3(C(=O)O)C[C@]3(C)c3ccccc3)cc2)CC1 (stereo partly drawn) [Example 2-436] |
| ≥ 1 | ≥ 10 | ≥ 1 |  |  |  | O=C(O)C1(NS(=O)(=O)c2ccc(OCc3ccc(Cl)cc3Cl)cc2)C2Cc3ccccc3C21 (stereo not drawn) [Example 2-446] |
| < 1 | ≥ 10 | ≥ 1 |  |  |  | CC1[C@H](c2ccccc2)[C@]1(NS(=O)(=O)N1CCCN(c2ccc(Cl)cn2)CC1)C(=O)O (stereo partly drawn) [Example 2-461] |
| ≥ 1 | ≥ 1 | ≥ 1 |  |  |  | CCNC(=O)N1CCN(S(=O)(=O)N[C@@]2(C(=O)O)C[C@@H]2c2ccccc2)CC1 [Example 2-512] |
| ≥ 1 | ≥ 1 | < 1 |  |  |  | O=C(O)[C@]1(NS(=O)(=O)c2ccc(-n3cc(Cl)cn3)nc2)C[C@@H]1c1ccccc1 [Example 2-554] |
| ≥ 1 | ≥ 10 | ≥ 1 |  |  |  | C[C@]1(c2ccccc2)C[C@@]1(NS(=O)(=O)c1ccc(-c2ccc3nnn(O)c3c2)s1)C(=O)O [Example 2-487] |
| < 1 | ≥ 1 | ≥ 10 |  |  |  | CC1[C@H](c2ccccc2)[C@]1(NS(=O)(=O)N1CCCN(c2ccc(F)cc2)CC1)C(=O)O (stereo partly drawn) [Example 2-472] |

The remaining lines, values behind:

| Compound | IC50 (aggrecanase-1; [1]) [µM] | IC50 (MMP-1; [2]) [µM] | IC50 (Recombinant Human MMP-13; [3]) [µM] | IC50 (aggrecanase-1; [4]) [µM] | IC50 (MMP-1; [5]) [µM] | IC50 (Recombinant Human MMP-13; [6]) [µM] |
| --- | --- | --- | --- | --- | --- | --- |
| O=C(O)C1(NS(=O)(=O)c2ccc(-c3cc(C(F)(F)F)on3)s2)CC1(CN1CCOCC1)c1ccccc1 (stereo not drawn) [Example 2-322] | < 0.1 | ≥ 1 | < 1 |  |  |  |
| CN(C)C(=O)CCc1ccc([C@H]2C[C@@]2(NS(=O)(=O)c2ccc(-c3cc(C(F)(F)F)on3)s2)C(=O)O)cc1 [Example 2-282] | < 0.1 | < 1 | < 0.1 |  |  |  |
| O=C(O)C1(NS(=O)(=O)c2ccc(-c3ccc(Cl)cc3)cc2)CC1c1ccc(Oc2ccccc2)cc1 (stereo not drawn) [Example 1-16] |  |  |  | < 1 | ≥ 1 | < 0.1 |
| O=C(O)C1(NS(=O)(=O)c2cccs2)CC1c1ccccc1 (stereo not drawn) [Example 2-83] |  |  |  | ≥ 10 | ≥ 10 | ≥ 10 |
| O=C(O)c1ccccc1C1CC1(NS(=O)(=O)c1ccc(-c2ccc(Cl)cc2)s1)C(=O)O (stereo not drawn) [Example 2-196] |  |  |  | < 0.1 | ≥ 1 | < 0.1 |
| O=C(O)[C@]1(NS(=O)(=O)c2ccc(-c3cc(C(F)(F)F)on3)s2)C[C@@H]1c1ccc(CCCO)cc1 [Example 2-302] | < 0.1 | < 1 | < 0.1 |  |  |  |
| O=C(Nc1cccc(C2CC2(NS(=O)(=O)c2ccc(-c3ccc(Cl)cc3)cc2)C(=O)O)c1)c1ccncc1 (stereo not drawn) [Example 1-63] |  |  |  | < 1 | ≥ 1 | < 0.1 |
| O=C(OCC1(c2ccccc2)CC1(NS(=O)(=O)c1ccc(-c2cc(C(F)(F)F)on2)s1)C(=O)O)N1CCOCC1 (stereo not drawn) [Example 2-306] | < 1 | ≥ 1 | < 1 |  |  |  |
| O=C(O)C1(NS(=O)(=O)c2ccc(-c3ccc(Cl)cc3)s2)CC1C1CCCC1 (stereo not drawn) [Example 2-61] |  |  |  | < 1 | ≥ 10 | < 1 |
| O=C(O)C1(NS(=O)(=O)c2ccc3c(c2)Cc2cc(Br)ccc2-3)CC1c1ccccc1 (stereo not drawn) [Example 1-72] |  |  |  | < 0.1 | ≥ 1 | < 1 |
| CCCc1cc(-c2ccc(S(=O)(=O)N[C@@]3(C(=O)O)C[C@@H]3c3ccccc3)s2)no1 [Example 2-90] |  |  |  | ≥ 1 | ≥ 1 | < 0.1 |
| O=C(O)C1(NS(=O)(=O)c2ccc(-c3ccc(Cl)cc3)s2)CC1c1ccccc1OCc1ccccn1 (stereo not drawn) [Example 2-23] |  |  |  | < 1 | ≥ 10 | < 1 |
| O=C(O)C1(NS(=O)(=O)c2ccc(-c3ccc(Cl)cc3)cc2)CC1c1cccc(OCCn2ccnc2)c1 (stereo not drawn) [Example 1-83] |  |  |  | < 1 | ≥ 1 | < 0.1 |
| O=C(NCC(F)(F)F)c1ccc(S(=O)(=O)NC2(C(=O)O)CC2c2ccccc2)s1 (stereo not drawn) [Example 2-106] |  |  |  | ≥ 10 | ≥ 10 | ≥ 10 |
| O=C(O)C1(NS(=O)(=O)N2CCC(Oc3ccccc3)CC2)CC1c1ccccc1 (stereo not drawn) [Example 2-143] |  |  |  | ≥ 10 | ≥ 10 | ≥ 1 |
| O=C(O)C1(NS(=O)(=O)c2ccc(-c3ccc(Cl)cc3)s2)CC1c1cccc(NCc2cccnc2)c1 (stereo not drawn) [Example 1-129] |  |  |  | < 0.1 | ≥ 1 | < 0.1 |
